This note sets out measurements from patent US10703746B2, “Mutant IDH1 inhibitors useful for treating cancer” (THE UNITED STATES OF AMERICA, AS REPRESENTED BY THE …, priority 2014, dated 2020).

The target in one assay is IDH1 R132C (Homo sapiens, UniProt O75874, R132C). The experiment in a line: IDH1 R132C enzymatic assay (NADPH depletion coupled to diaphorase/resazurin). It counts as biochemical. Particulars: IDH1 R132C enzymatic inhibition, IC50 class. Put shortly:
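NADPH depletion, read via diaphorase/resazurin coupling, after adding substrate at 0.6 mM α-KG and 0.012 mM NADPH. Beforehand, 0.00032 mg/mL enzyme sat with compound 30 min at room temperature in pH 6.5 potassium phosphate buffer with MgCl2, glycerol and BSA.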
Background: Alamar Blue is a resazurin reagent that responds to reducing activity.

The next assay concerns the target IDH1 R132H (Homo sapiens, UniProt O75874, R132H). The assay is described as follows: IDH1 R132H enzymatic assay (NADPH depletion coupled to diaphorase/resazurin). Particulars: IDH1 R132H enzymatic inhibition, IC50 class. The assay is classed as biochemical.

Bounds are passed on as bounds.

IDH1 R132H, sequence (O75874 whole entry R132H): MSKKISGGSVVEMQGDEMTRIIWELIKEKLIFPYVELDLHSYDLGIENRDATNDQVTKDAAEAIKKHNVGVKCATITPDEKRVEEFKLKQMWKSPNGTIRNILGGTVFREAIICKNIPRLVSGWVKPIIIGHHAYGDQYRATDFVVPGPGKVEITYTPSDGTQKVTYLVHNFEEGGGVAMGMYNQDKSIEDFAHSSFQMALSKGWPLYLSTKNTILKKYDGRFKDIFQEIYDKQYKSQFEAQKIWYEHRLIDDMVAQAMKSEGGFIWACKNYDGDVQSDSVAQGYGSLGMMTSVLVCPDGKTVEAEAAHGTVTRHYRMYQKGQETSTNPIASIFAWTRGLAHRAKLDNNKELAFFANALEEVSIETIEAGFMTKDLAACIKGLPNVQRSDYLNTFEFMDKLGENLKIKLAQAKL
IDH1 R132C, sequence (O75874 whole entry R132C): as the sequence (O75874 whole entry R132H) above, with H132C counted along it

For orientation: IC50 means the concentration that inhibits the measured activity by half. Read a high IC50 as weaker potency in that assay. Turning to `CCc1ccc(Cl)c(CC)c1-n1c(C=C(C)C)c(C(=O)N2CCNCC2)cc(-c2nc(-c3ccc(Cl)cc3)cs2)c1=O` [Compound 666], the IC50 on IDH1 R132C and at IDH1 R132H was less than 300 nM each time.
As for `COc1ncc(C)cc1-n1c(C=C(C)C)c(C(=O)N2CCNCC2)cc(-c2nc(-c3ccc(Cl)cc3)cs2)c1=O` [Compound 667], the IC50 against IDH1 R132C and against IDH1 R132H was less than 300 nM in each case.
With `COc1cccc(F)c1-n1c2c(cc(-c3nc(-c4ccc(Cl)cc4)cs3)c1=O)C(=O)CC(C)(C)C2` [Compound 668], the IC50 on IDH1 R132C and against IDH1 R132H was 1000 to 5000 nM in each case.
Regarding `COc1ccc(F)cc1-n1c2c(cc(-c3nc(-c4ccc(Cl)cc4)cs3)c1=O)C(=O)CC(C)(C)C2` [Compound 669], the IC50 against IDH1 R132C and at IDH1 R132H was 300 to 1000 nM each time.
Regarding `CCc1cccc(CC)c1-n1c(C2CCNCC2)c(C(=O)N2CCNCC2)cc(-c2nc(-c3ccc(Cl)cc3)cs2)c1=O` [Compound 670], the figures for the IC50 against IDH1 R132C and on IDH1 R132H were more than 20000 nM and 5000 to 20000 nM, respectively.
For `CCOc1ccc(C)cc1-n1c(CC(C)C)c(C(=O)N2CCNCC2)cc(-c2nc(-c3ccc(C(F)F)cc3)cs2)c1=O` [Compound 685], the IC50 on IDH1 R132C and at IDH1 R132H was less than 300 nM in each case.
Turning to `CCOc1ccc(F)cc1-n1c(CC(C)C)c(C(=O)N2CCNCC2)cc(-c2nc(-c3ccc(C(F)F)cc3)cs2)c1=O` [Compound 686], the IC50 on IDH1 R132C and against IDH1 R132H was 300 to 1000 nM throughout.
`CCOc1ccc(Cl)cc1-n1c(CC(C)C)c(C(=O)N2CCNCC2)cc(-c2nc(-c3ccc(C(F)F)cc3)cs2)c1=O` [Compound 687]: the IC50 against IDH1 R132C and on IDH1 R132H was 300 to 1000 nM each time.
For the compound `CCOc1ccc(OCC)c(-n2c3c(cc(-c4nc(-c5ccc(Cl)cc5)cs4)c2=O)C(=O)CC(C)(C)C3)c1` [Compound 828], the figures for the IC50 against IDH1 R132C and against IDH1 R132H were less than 300 nM and 300 to 1000 nM, respectively.
